Experimental data reported in patent US8956999B2, “Herbicides” (Syngenta Limited, priority 2007, dated 2015).

How the values were obtained:
Format in all cases: in vivo
Setaria faberi (SETFA) [1] = test: Example B pre-emergence herbicidal test, glasshouse; details: Setaria faberi, 312 h, rate 250 g/ha, evaluated after 13 days, 100=total damage to plant, 0=no damage to plant, read-out: Pre-Emergence Activity SEFTA
Experimental: (§1) Seeds of a variety of test species were sown in standard soil in pots. After cultivation for one day (pre-emergence) or after 8 days cultivation (post-emergence) under controlled conditions in a glasshouse (at 24/16° C., day/night; 14 hours light; 65% humidity), the plants were sprayed with an aqueous spray solution derived from the formulation of the technical active ingredient in acetone/water (50:50) solution containing 0.5% Tween 20 (polyoxyethelyene sorbitan monolaurate, CAS RN 9005-64-5). The test plants were then grown in a glasshouse under controlled conditions in a glasshouse (at 24/16° C., day/night; 14 hours light; 65% humidity) and watered twice daily. After 13 days for pre and post-emergence, the test was evaluated (100=total damage to plant; 0=no damage to plant). Test Plants: Alopecurus myosuroides (ALOMY), Avena fatua (AVEFA), Setaria faberi (SETFA), Echinochloa crus-galli (ECHCG), Solanum nigrum (SOLNI) and Amaranthus retoflexus (AMARE)

[2] = system: Echinochloa crus-galli (ECHCG); test: as above; details: Echinochloa crus-galli, 312 h, rate 250 g/ha, evaluated after 13 days, 100=total damage to plant, 0=no damage to plant, read-out: Pre-Emergence Activity ECHGG
Experimental: as §1

Avena fatua (AVEFA) [3] = test: as above; details: 312 h, rate 250 g/ha, evaluated after 13 days, 100=total damage to plant, 0=no damage to plant
Experimental: as §1

[4] = system: Amaranthus retoflexus (AMARE); test: as above; details: Amaranthus retroflexus, 312 h, rate 250 g/ha, evaluated after 13 days, 100=total damage to plant, 0=no damage to plant
Experimental: as §1

[5] = system: Alopecurus myosuroides (ALOMY); test: as above; details: 312 h, rate 250 g/ha, evaluated after 13 days, 100=total damage to plant, 0=no damage to plant
Experimental: as §1

Setaria faberi (SETFA) [6] = test: Example B post-emergence herbicidal test, glasshouse; details: 312 h, rate 250 g/ha, evaluated after 13 days, read-out: Post-Emergence Activity SEFTA (100=total damage to plant; 0=no damage to plant)
Experimental: as §1

[7] = system: Echinochloa crus-galli (ECHCG); test: as above; details: 312 h, rate 250 g/ha, evaluated after 13 days, read-out: Post-Emergence Activity ECHGG (100=total damage to plant; 0=no damage to plant)
Experimental: as §1

Avena fatua (AVEFA) [8] = test: as above; details: 312 h, rate 250 g/ha, evaluated after 13 days, read-out: Post-Emergence Activity AVEFA (100=total damage to plant; 0=no damage to plant)
Experimental: as §1

[9] = system: Amaranthus retoflexus (AMARE); test: as above; details: Amaranthus retroflexus, 312 h, rate 250 g/ha, evaluated after 13 days, read-out: Post-Emergence Activity AMARE (100=total damage to plant; 0=no damage to plant)
Experimental: as §1

[10] = system: Alopecurus myosuroides (ALOMY); test: as above; details: 312 h, rate 250 g/ha, evaluated after 13 days, read-out: Post-Emergence Activity ALOMY (100=total damage to plant; 0=no damage to plant)
Experimental: as §1

| SMILES | pest or weed control at 250 g/ha (Setaria faberi (SETFA) [1]) [%] | pest or weed control at 250 g/ha [2] [%] | pest or weed control at 250 g/ha (Avena fatua (AVEFA) [3]) [%] | pest or weed control at 250 g/ha [4] [%] | pest or weed control at 250 g/ha [5] [%] | pest or weed control at 250 g/ha (Setaria faberi (SETFA) [6]) [%] | pest or weed control at 250 g/ha [7] [%] | pest or weed control at 250 g/ha (Avena fatua (AVEFA) [8]) [%] | pest or weed control at 250 g/ha [9] [%] | pest or weed control at 250 g/ha [10] [%] |
| --- | --- | --- | --- | --- | --- | --- | --- | --- | --- | --- |
| Cc1sc(-c2ccc([S+](C)[O-])cc2)nc1C1C(=O)C(C)(C)OC(C)(C)C1=O (stereo not drawn) [Compound T68] | 20 | 20 | 0 | 0 | 0 | 70 | 80 | 0 | 0 | 0 |
| CCc1sc(-c2c(C)cc(Cl)cc2F)nc1C1C(=O)C(C)(C)OC(C)(C)C1=O [Compound T64] | 100 | 70 | 0 | 0 | 0 | 100 | 100 | 60 | 0 | 20 |
| CCc1sc(-c2ccc(Cl)cc2F)nc1C1C(=O)C(C)(C)OC(C)(C)C1=O [Compound T47] | 90 | 70 | 90 | 20 | 70 | 100 | 100 | 100 | 0 | 100 |
| CCc1sc(-c2ccc(SC)cc2)nc1C1C(=O)C(C)(C)OC(C)(C)C1=O [Compound T69] | 20 | 20 | 0 | 0 | 0 | 90 | 100 | 40 | 0 | 60 |
| Cc1sc(-c2ccc(Br)cn2)nc1C1C(=O)C(C)(C)OC(C)(C)C1=O [Compound T56] | 20 | 10 | 0 | 0 | 0 | 90 | 80 | 20 | 0 | 30 |
| Cc1sc(-c2ccc(Br)cn2)nc1C1=C(OC(=O)C2CC2)C(C)(C)OC(C)(C)C1=O [Compound P4] | 20 | 10 | 0 | 0 | 0 | 90 | 90 | 0 | 0 | 40 |
| CCc1sc(-c2ccc(OC(F)F)cc2)nc1C1C(=O)C(C)(C)OC(C)(C)C1=O [Compound T62] | 100 | 60 | 0 | 0 | 90 | 100 | 100 | 100 | 0 | 100 |
| CC(=O)OC1=C(c2nc(-c3ccc(Br)cn3)sc2C)C(=O)C(C)(C)OC1(C)C [Compound P3] | 20 | 30 | 0 | 0 | 20 | 90 | 90 | 30 | 0 | 50 |
| CCc1sc(-c2ccc(Br)cn2)nc1C1C(=O)C(C)(C)OC(C)(C)C1=O [Compound T63] | 20 | 30 | 20 | 0 | 20 | 100 | 100 | 90 | 0 | 80 |
| CCc1sc(-c2ccc(Cl)cc2Cl)nc1C1C(=O)C(C)(C)OC(C)(C)C1=O [Compound T53] | 90 | 60 | 0 | 0 | 30 | 100 | 100 | 90 | 0 | 90 |
| Cc1sc(-c2ccc(Cl)cc2F)nc1C1C(=O)C(C)(C)OC(C)(C)C1=O [Compound T21] | 100 | 100 | 0 | 0 | 60 | 100 | 100 | 90 | 0 | 100 |
| Cc1sc(-c2ccc(Cl)cc2F)nc1C1C(=O)C(C)(C)C(=O)C(C)(C)C1=O [Compound T9] | 40 | 20 | 0 | 0 | 0 | 80 | 90 | 40 | 0 | 90 |
| Cc1sc(COc2ccc(Cl)cc2)nc1C1C(=O)C(C)(C)OC(C)(C)C1=O [Compound T59] | 0 | 0 | 0 | 0 | 0 | 30 | 70 | 0 | 0 | 30 |
| Cc1cc(Br)ccc1-c1nc(C2C(=O)C(C)(C)OC(C)(C)C2=O)c(C)s1 [Compound T58] | 100 | 50 | 0 | 20 | 0 | 100 | 100 | 80 | 0 | 90 |
| CCc1sc(-c2ccc(Cl)c(F)c2)nc1C1C(=O)C(C)(C)OC(C)(C)C1=O [Compound T48] | 70 | 50 | 60 | 0 | 30 | 100 | 100 | 100 | 0 | 100 |
